In ChEMBL document CHEMBL1142802, “L-arginine analogs as alternate substrates for nitric oxide synthase” (Bioorg Med Chem Lett, 2005) one finds Ki data, which are given here for 2 compounds.

For this test, the target named is Nitric oxide synthase, inducible (Homo sapiens, UniProt P35228). The test can be described thus: Binding affinity towards inducible nitric oxide synthase.
Chain of Nitric oxide synthase, inducible (P35228 whole entry): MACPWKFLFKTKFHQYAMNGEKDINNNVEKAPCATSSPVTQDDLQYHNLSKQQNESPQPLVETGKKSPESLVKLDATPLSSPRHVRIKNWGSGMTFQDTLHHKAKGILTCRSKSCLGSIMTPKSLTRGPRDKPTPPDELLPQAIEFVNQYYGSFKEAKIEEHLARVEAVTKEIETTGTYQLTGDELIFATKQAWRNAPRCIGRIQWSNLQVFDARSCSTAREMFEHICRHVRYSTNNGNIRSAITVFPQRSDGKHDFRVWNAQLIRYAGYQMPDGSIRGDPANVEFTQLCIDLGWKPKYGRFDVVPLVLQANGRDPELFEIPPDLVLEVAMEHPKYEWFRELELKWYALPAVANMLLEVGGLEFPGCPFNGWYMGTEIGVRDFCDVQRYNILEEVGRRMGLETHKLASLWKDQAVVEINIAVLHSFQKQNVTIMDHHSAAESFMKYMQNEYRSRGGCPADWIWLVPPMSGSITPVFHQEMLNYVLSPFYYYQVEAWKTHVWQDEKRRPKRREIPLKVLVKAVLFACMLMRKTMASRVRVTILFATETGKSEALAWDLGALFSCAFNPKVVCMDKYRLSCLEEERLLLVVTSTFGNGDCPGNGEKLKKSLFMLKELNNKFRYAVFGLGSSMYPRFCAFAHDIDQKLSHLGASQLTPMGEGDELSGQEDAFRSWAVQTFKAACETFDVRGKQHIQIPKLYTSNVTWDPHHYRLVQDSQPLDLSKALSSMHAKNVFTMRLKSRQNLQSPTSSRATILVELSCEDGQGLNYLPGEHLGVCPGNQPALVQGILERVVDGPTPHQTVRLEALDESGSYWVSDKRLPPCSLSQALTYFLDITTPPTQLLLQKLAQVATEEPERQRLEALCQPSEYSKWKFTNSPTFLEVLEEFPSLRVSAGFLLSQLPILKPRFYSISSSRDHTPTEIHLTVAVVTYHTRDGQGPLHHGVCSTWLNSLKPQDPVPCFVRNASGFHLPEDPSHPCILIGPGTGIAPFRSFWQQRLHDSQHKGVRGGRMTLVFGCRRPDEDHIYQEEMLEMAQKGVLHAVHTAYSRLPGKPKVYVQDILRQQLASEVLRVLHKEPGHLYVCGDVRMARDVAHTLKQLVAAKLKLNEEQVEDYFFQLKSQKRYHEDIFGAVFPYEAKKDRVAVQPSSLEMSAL

The Ki is the equilibrium dissociation constant of an inhibitor or competing ligand from its target. Low values mean higher affinity, high ones lower affinity. As to `N=C(N)CCCCC(N)C(=O)O` (configuration not stated), the Ki was more than 3000 µM. The compound `N=C(N)NOCC[C@H](N)C(=O)O` [CANAVANINE] registered an inhibitory constant (Ki) of 220 µM.
